The source made the active and inactive calls. No cut-off for these calls is given here.

For assay [1], the system named is Platelet. As to the kind of experiment: Antiaggregating activity in Homo sapiens (human) platelet rich plasma assessed as inhibition of collagen-induced platelet aggregation at 0.5 uM incubated for 4 min prior to collagen-induction measured for 5.5 min by turbidometric analysis. The format is functional, cell-free.
In assay [2] the test system is Platelet. The experiment in a line: Antiaggregating activity in Homo sapiens (human) platelet rich plasma assessed as inhibition of ADP-induced platelet aggregation at 0.5 uM incubated for 4 min prior to ADP-induction measured for 5.5 min by turbidometric analysis. The format is functional, cell-free.
The subject of assay [3] is Platelet. As to the kind of experiment: Antiaggregating activity in Homo sapiens (human) platelet rich plasma assessed as inhibition of arachidonic acid-induced platelet aggregation at 0.5 uM incubated for 4 min prior to arachidonic acid-induction measured for 5.5 min by turbidometric analysis. The format is functional.
In assay [4] the test system is Platelet. As to the kind of experiment: Antiaggregating activity in Homo sapiens (human) platelet rich plasma assessed as inhibition of ADP-induced platelet aggregation at 1 uM incubated for 4 min prior to ADP-induction measured for 5.5 min by turbidometric analysis. The format is functional, cell-free.
Assay [5] has as its system Platelet. The experiment in a line: Antiaggregating activity in Homo sapiens (human) platelet rich plasma assessed as inhibition of ristocetin-induced platelet aggregation at 1 uM incubated for 4 min prior to ristocetin-induction measured for 5.5 min by turbidometric analysis. It is filed as functional, cell-free.
Assay [6] relates to Platelet. As to the kind of experiment: Antiaggregating activity in Homo sapiens (human) platelet rich plasma assessed as inhibition of adrenaline-induced platelet aggregation at 0.25 uM incubated for 4 min prior to adrenaline-induction measured for 5.5 min by turbidometric analysis. It is filed as functional, cell-free.
Assay [7] is described as follows: Antiaggregating activity in Homo sapiens (human) platelet rich plasma assessed as ristocetin-induced platelet aggregation at 0.5 uM incubated for 4 min prior to ristocetin-induction measured for 5.5 min by turbidometric analysis (reference value: 65 to 99%). The format is functional.
Assay [8] has as its system Platelet. As to the kind of experiment: Antiaggregating activity in Homo sapiens (human) platelet rich plasma assessed as inhibition of ADP-induced platelet aggregation at 0.25 uM incubated for 4 min prior to ADP-induction measured for 5.5 min by turbidometric analysis. The format is functional, cell-free.
Assay [9] has as its system Platelet. As to the kind of experiment: Antiaggregating activity in Homo sapiens (human) platelet rich plasma assessed as inhibition of arachidonic acid-induced platelet aggregation at 1 uM incubated for 4 min prior to arachidonic acid-induction measured for 5.5 min by turbidometric analysis. The format is functional, cell-free.
Assay [10] has as its system Platelet. The experiment in a line: Antiaggregating activity in Homo sapiens (human) platelet rich plasma assessed as inhibition of arachidonic acid-induced platelet aggregation at 0.25 uM incubated for 4 min prior to arachidonic acid-induction measured for 5.5 min by turbidometric analysis. The format is functional, cell-free.
Assay [11] deals with Platelet. As to the kind of experiment: Antiaggregating activity in Homo sapiens (human) platelet rich plasma assessed as inhibition of collagen-induced platelet aggregation at 0.25 uM incubated for 4 min prior to collagen-induction measured for 5.5 min by turbidometric analysis. The format is functional.
Assay [12] can be described thus: Antiaggregating activity in Homo sapiens (human) platelet rich plasma assessed as ristocetin-induced platelet aggregation at 0.25 uM incubated for 4 min prior to ristocetin-induction measured for 5.5 min by turbidometric analysis (reference value: 65 to 99%). It is filed as functional.
Assay [13] has as its system Platelet. As to the kind of experiment: Antiaggregating activity in Homo sapiens (human) platelet rich plasma assessed as inhibition of adrenaline-induced platelet aggregation at 1 uM incubated for 4 min prior to adrenaline-induction measured for 5.5 min by turbidometric analysis. It is filed as functional, cell-free.
In assay [14] the test system is Platelet. As to the kind of experiment: Antiaggregating activity in Homo sapiens (human) platelet rich plasma assessed as inhibition of collagen-induced platelet aggregation at 1 uM incubated for 4 min prior to collagen-induction measured for 5.5 min by turbidometric analysis. The format is functional, cell-free.
In assay [15] the test system is Platelet. The experiment in a line: Antiaggregating activity in Homo sapiens (human) platelet rich plasma assessed as inhibition of adrenaline-induced platelet aggregation at 0.5 uM incubated for 4 min prior to adrenaline-induction measured for 5.5 min by turbidometric analysis. It is filed as functional, cell-free.
Assay [16] in a line: Antiaggregating activity in Homo sapiens (human) platelet rich plasma assessed as disaggregation of ADP-induced platelet aggregation at 0.06 uM incubated for 4 min prior to ADP-induction measured for 5.5 min by turbidometric analysis relative to control. The format is functional.
Assay [17] deals with Platelet. The experiment in a line: Antiaggregating activity in Homo sapiens (human) platelet rich plasma assessed as inhibition of collagen-induced platelet aggregation at 0.03 uM incubated for 4 min prior to collagen-induction measured for 5.5 min by turbidometric analysis. The format is functional, cell-free.
Assay [18] is described as follows: Antiaggregating activity in Homo sapiens (human) platelet rich plasma assessed as ristocetin-induced platelet aggregation at 0.125 uM incubated for 4 min prior to ristocetin-induction measured for 5.5 min by turbidometric analysis (reference value: 65 to 99%). It is filed as functional.
In assay [19] the test system is Platelet. The experiment in a line: Antiaggregating activity in Homo sapiens (human) platelet rich plasma assessed as inhibition of arachidonic acid-induced platelet aggregation at 0.06 uM incubated for 4 min prior to arachidonic acid-induction measured for 5.5 min by turbidometric analysis. It is filed as functional, cell-free.
Assay [20] has as its system Platelet. As to the kind of experiment: Antiaggregating activity in Homo sapiens (human) platelet rich plasma assessed as inhibition of collagen-induced platelet aggregation at 0.125 uM incubated for 4 min prior to collagen-induction measured for 5.5 min by turbidometric analysis. It is filed as functional, cell-free.
In assay [21] the test system is Platelet. As to the kind of experiment: Antiaggregating activity in Homo sapiens (human) platelet rich plasma assessed as inhibition of arachidonic acid-induced platelet aggregation at 0.125 uM incubated for 4 min prior to arachidonic acid-induction measured for 5.5 min by turbidometric analysis. It is filed as functional, cell-free.
A short description of assay [22]: Antiaggregating activity in Homo sapiens (human) platelet rich plasma assessed as ristocetin-induced platelet aggregation at 0.03 uM incubated for 4 min prior to ristocetin-induction measured for 5.5 min by turbidometric analysis (reference value: 65 to 99%). It is filed as functional.
Assay [23] deals with Platelet. The experiment in a line: Antiaggregating activity in Homo sapiens (human) platelet rich plasma assessed as inhibition of ADP-induced platelet aggregation at 0.125 uM incubated for 4 min prior to ADP-induction measured for 5.5 min by turbidometric analysis. It is filed as functional, cell-free.
The nature of assay [24]: Antiaggregating activity in Homo sapiens (human) platelet rich plasma assessed as ristocetin-induced platelet aggregation at 1 uM incubated for 4 min prior to ristocetin-induction measured for 5.5 min by turbidometric analysis (reference value: 65 to 99%). It is filed as functional.
A short description of assay [25]: Antiaggregating activity in Homo sapiens (human) platelet rich plasma assessed as arachidonic acid-induced platelet aggregation at 0.03 uM incubated for 4 min prior to arachidonic acid-induction measured for 5.5 min by turbidometric analysis (reference value: 55 to 100%). It is filed as functional.
Assay [26] can be described thus: Antiaggregating activity in Homo sapiens (human) platelet rich plasma assessed as ADP-induced platelet aggregation at 0.03 uM incubated for 4 min prior to ADP-induction measured for 5.5 min by turbidometric analysis (reference value: 54 to 88%). The format is functional.
Assay [27] in a line: Antiaggregating activity in Homo sapiens (human) platelet rich plasma assessed as ristocetin-induced platelet aggregation at 0.06 uM incubated for 4 min prior to ristocetin-induction measured for 5.5 min by turbidometric analysis (reference value: 65 to 99%). The format is functional.
Assay [28] relates to Platelet. The experiment in a line: Antiaggregating activity in Homo sapiens (human) platelet rich plasma assessed as inhibition of collagen-induced platelet aggregation at 0.06 uM incubated for 4 min prior to collagen-induction measured for 5.5 min by turbidometric analysis. The format is functional, cell-free.
The test system of assay [29] is Platelet. As to the kind of experiment: Antiaggregating activity in Homo sapiens (human) platelet rich plasma assessed as inhibition of adrenaline-induced platelet aggregation at 0.06 uM incubated for 4 min prior to adrenaline-induction measured for 5.5 min by turbidometric analysis. It is filed as functional, cell-free.
The subject of assay [30] is Platelet. The experiment in a line: Antiaggregating activity in Homo sapiens (human) platelet rich plasma assessed as inhibition of adrenaline-induced platelet aggregation at 0.03 uM incubated for 4 min prior to adrenaline-induction measured for 5.5 min by turbidometric analysis. The format is functional, cell-free.
The test system of assay [31] is Platelet. As to the kind of experiment: Antiaggregating activity in Homo sapiens (human) platelet rich plasma assessed as inhibition of adrenaline-induced platelet aggregation at 0.125 uM incubated for 4 min prior to adrenaline-induction measured for 5.5 min by turbidometric analysis. It is filed as functional, cell-free.
Assay [32] in a line: Antiaggregating activity in Homo sapiens (human) platelet rich plasma assessed as collagen-induced platelet aggregation at 0.03 uM incubated for 4 min prior to collagen-induction measured for 5.5 min by turbidometric analysis (reference value: 50 to 98%). The format is functional.
Assay [33] can be described thus: Antiaggregating activity in Homo sapiens (human) platelet rich plasma assessed as disaggregation of ADP-induced platelet aggregation at 0.25 uM incubated for 4 min prior to ADP-induction measured for 5.5 min by turbidometric analysis relative to control. It is filed as functional.
Assay [34] relates to Platelet. As to the kind of experiment: Antiaggregating activity in Homo sapiens (human) platelet rich plasma assessed as inhibition of collagen-induced platelet aggregation at 0.1 uM incubated for 4 min prior to collagen-induction measured for 5.5 min by turbidometric analysis. It is filed as functional, cell-free.
Assay [35] in a line: Antiaggregating activity in Homo sapiens (human) platelet rich plasma assessed as disaggregation of ristocetin-induced platelet aggregation at 0.25 uM incubated for 4 min prior to ristocetin-induction measured for 5.5 min by turbidometric analysis relative to control. The format is functional.
Assay [36] is described as follows: Antiaggregating activity in Homo sapiens (human) platelet rich plasma assessed as ristocetin-induced platelet aggregation at 0.1 uM incubated for 4 min prior to ristocetin-induction measured for 5.5 min by turbidometric analysis (reference value: 65 to 99%). It is filed as functional.
Assay [37] has as its system Platelet. As to the kind of experiment: Antiaggregating activity in Homo sapiens (human) platelet rich plasma assessed as inhibition of adrenaline-induced platelet aggregation at 0.1 uM incubated for 4 min prior to adrenaline-induction measured for 5.5 min by turbidometric analysis. It is filed as functional, cell-free.
Assay [38] is described as follows: Antiaggregating activity in Homo sapiens (human) platelet rich plasma assessed as ADP-induced platelet aggregation at 0.1 uM incubated for 4 min prior to ADP-induction measured for 5.5 min by turbidometric analysis (reference value: 54 to 88%). The format is functional.
The nature of assay [39]: Antiaggregating activity in Homo sapiens (human) platelet rich plasma assessed as arachidonic acid-induced platelet aggregation at 0.1 uM incubated for 4 min prior to arachidonic acid-induction measured for 5.5 min by turbidometric analysis (reference value: 55 to 100%). It is filed as functional.

`COc1cc(C(=O)[n+]2cccc(C(=O)N3CCN(c4ccccc4Cl)CC3)c2)cc(OC)c1OC.[Cl-]`: the inhibition entry with Platelet [1], in the assay with Platelet [2], in the assay on Platelet [3], with Platelet [4], with Platelet [5] and in the assay on Platelet [6] was “Active” throughout. The inhibition result in the assay on Platelet [8], with Platelet [9], in the assay on Platelet [10], in the assay on Platelet [11], in the assay on Platelet [13] and with Platelet [14] was “Active” throughout. Besides, the inhibition entry with Platelet [15] was “Active”. Besides, the Activity in assay [7] came to 20%; in [12], 79%.
Consider `Br.O=C(C1CCCN(Cc2ccc(Br)cc2)C1)N1CCN(c2ccccc2Cl)CC1` (stereo not given), for which the Activity in assay [16] was found to be 20%; in [18], 53%; in assay [22], 67%; in [24], 39%; in [25] it was 56%; in assay [26], 55%. Further, the Activity in assay [27] is listed as 62%. Also, the inhibition result in the assay with Platelet [17], in the assay with Platelet [19], in the assay with Platelet [20], in the assay on Platelet [21], with Platelet [4] and in the assay on Platelet [23] was “Active” throughout. Moreover, the inhibition result in the assay on Platelet [9], with Platelet [28], with Platelet [13], with Platelet [29], in the assay with Platelet [14] and with Platelet [30] was “Active” throughout. The inhibition result in the assay on Platelet [31] was “Active”.
In the case of `Br.O=C(C1CCCN(Cc2ccc(CN3CCCC(C(=O)N4CCN(c5ccccc5Cl)CC4)C3)cc2)C1)N1CCN(c2ccccc2Cl)CC1` (stereo not given), the Activity in [16] is given as 27%; in assay [18], 31%; in assay [32], 76%; in assay [22], 78%; in assay [24] it was 30%; in assay [25], 58%. Besides, the Activity in assay [26] was 84%; in assay [27], 61%; in assay [7], 35%. The inhibition result with Platelet [1], in the assay on Platelet [19], with Platelet [20], in the assay with Platelet [2], in the assay on Platelet [3] and in the assay on Platelet [21] was “Active” each time. Further, the inhibition result in the assay with Platelet [4], in the assay with Platelet [23], in the assay on Platelet [9], in the assay with Platelet [28], in the assay with Platelet [13] and in the assay on Platelet [29] was “Active” in each case. Besides, the inhibition entry in the assay on Platelet [14], with Platelet [15], in the assay on Platelet [30] and in the assay with Platelet [31] was “Active” in each case.
Turning to `Cl.O=C(C1CCCN(Cc2ccccc2F)C1)N1CCN(c2ccccc2Cl)CC1` (stereo not given), the inhibition result in the assay on Platelet [1], in the assay on Platelet [34], in the assay on Platelet [2], with Platelet [3], in the assay with Platelet [4] and with Platelet [6] was “Active” in each case. In addition, the inhibition entry in the assay on Platelet [9], in the assay on Platelet [10], in the assay with Platelet [11], in the assay on Platelet [13], in the assay on Platelet [37] and in the assay on Platelet [14] was “Active” in each case. In the assay on Platelet [15], the inhibition result is “Active”. Moreover, the Activity worked out at 38% in [33]; 18% in assay [35]; 50% in assay [24]; 73% in assay [7]; 50% in assay [36]; 74% in assay [38]. Moreover, in assay [39], the Activity amounted to 59%.
